Assay [1] has as its target T1, Phospho-EGFR (Tyr1068) in H1975 C797S cells (Homo sapiens, UniProt P00533, C797S/L858R/T790M).
T1 construct: endogenous in cells; host or cells: H1975 C797S (CRISPR-edited in house from ATCC CRL-5908)
The assay is described as follows: HTRF pEGFR/total EGFR assay in H1975 C797S cells. Format: cell-based. Particulars: H1975 C797S cells (CRISPR), compound 3 hours, ratio pEGFR/total EGFR. Put shortly: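 H1975 cells carrying CRISPR-engineered EGFR C797S (with L858R/T790M) were exposed to compounds for 3 h at 0.1% DMSO, in duplicate. Lysates were read with HTRF kits for pEGFR Tyr1068 and total EGFR at 665/620 nm. Values are the pEGFR/total EGFR ratio as percent of the 0 uM control.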
In general terms: TR-FRET usually uses a lanthanide donor and a delayed reading to cut background.

The target of assay [2] is CtermHisTag-mEGFR Triple Mutant - C797S, L858R, T790M (Homo sapiens, UniProt P00533, C797S/L858R/T790M). The assay is described as follows: TR-FRET probe displacement assay, EGFR triple mutant. It counts as binding. The conditions noted are these: T790M 1.25 nM, probe 100 nM, 30 mins room temperature. A digest of the protocol: (§1)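 Ten-point compound series, 100000 to 3 nM final, tested against His-tagged EGFR (wild type or C797S/L858R/T790M) for probe displacement. TR-FRET read at Ex337 nm, Em490/520 nm; run in technical replicate, biological duplicate.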

Assay [3] concerns the target T2, Phospho-EGFR (Tyr1068) in A431 cells (Homo sapiens, UniProt P00533).
T2 construct: endogenous in cells; host or cells: A431
The assay is described as follows: HTRF pEGFR/total EGFR assay in A431 cells (EGF stimulated). It counts as cell-based. The conditions noted are these: compound 2.5 hours then 100 ng/ml EGF 30 mins, ratio pEGFR/total EGFR. Put shortly:
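A431 cells pretreated with compounds 2.5 h (0.1% DMSO), then stimulated with 100 ng/ml EGF for 30 min. Lysates assayed by HTRF for phospho-EGFR (Tyr1068) and total EGFR, read at 665/620 nm. Values are pEGFR/total EGFR ratio as percentage of 0uM control.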

The target of assay [4] is T3, Phospho-EGFR (Tyr1068) in H1975 cells (Homo sapiens, UniProt P00533, L858R/T790M).
T3 construct: host or cells: H1975
T3 sequence (P00533 25-1210 T790M/L858R): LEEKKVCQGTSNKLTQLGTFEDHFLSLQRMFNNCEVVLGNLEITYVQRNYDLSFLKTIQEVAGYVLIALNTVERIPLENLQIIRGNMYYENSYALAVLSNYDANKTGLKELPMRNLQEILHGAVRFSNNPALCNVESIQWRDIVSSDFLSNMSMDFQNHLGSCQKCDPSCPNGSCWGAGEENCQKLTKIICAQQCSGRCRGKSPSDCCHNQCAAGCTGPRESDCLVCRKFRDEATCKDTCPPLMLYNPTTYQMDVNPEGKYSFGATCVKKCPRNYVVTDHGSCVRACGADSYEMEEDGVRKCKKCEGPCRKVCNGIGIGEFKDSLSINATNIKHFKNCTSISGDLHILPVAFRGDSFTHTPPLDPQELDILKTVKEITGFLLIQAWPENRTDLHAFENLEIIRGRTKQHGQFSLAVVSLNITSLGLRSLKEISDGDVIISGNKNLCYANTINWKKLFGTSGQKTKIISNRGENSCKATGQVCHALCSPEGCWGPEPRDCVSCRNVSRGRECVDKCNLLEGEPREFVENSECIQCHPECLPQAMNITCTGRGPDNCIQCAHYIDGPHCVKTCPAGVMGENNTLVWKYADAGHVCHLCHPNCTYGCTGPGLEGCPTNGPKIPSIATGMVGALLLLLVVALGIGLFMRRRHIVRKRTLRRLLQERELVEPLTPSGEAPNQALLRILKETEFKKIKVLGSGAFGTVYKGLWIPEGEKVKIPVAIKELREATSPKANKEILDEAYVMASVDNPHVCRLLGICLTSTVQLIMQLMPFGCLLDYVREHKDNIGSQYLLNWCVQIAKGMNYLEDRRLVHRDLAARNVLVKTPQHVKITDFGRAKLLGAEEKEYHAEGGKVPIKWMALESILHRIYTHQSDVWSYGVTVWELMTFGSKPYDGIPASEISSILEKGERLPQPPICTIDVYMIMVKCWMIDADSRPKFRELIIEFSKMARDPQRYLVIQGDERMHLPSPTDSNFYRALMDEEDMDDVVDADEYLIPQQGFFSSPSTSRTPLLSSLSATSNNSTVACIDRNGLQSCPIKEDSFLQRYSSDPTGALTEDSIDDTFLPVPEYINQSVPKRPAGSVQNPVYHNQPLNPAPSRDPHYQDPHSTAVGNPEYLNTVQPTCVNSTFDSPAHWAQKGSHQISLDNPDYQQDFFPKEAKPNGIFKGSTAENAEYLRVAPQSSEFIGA
The assay is described as follows: HTRF pEGFR/total EGFR assay in H1975 cells. The conditions noted are these: compound 3 hours, ratio pEGFR/total EGFR. It counts as cell-based. A digest of the protocol: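 H1975 cells (EGFR L858R/T790M) adhered 24 h, then compound-treated for 3 h in duplicate, 0.1% DMSO final. Lysates read by HTRF at 665/620 nm for phospho-Tyr1068 and total EGFR. Value is pEGFR/total EGFR ratio as % of 0 uM control.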

The target in assay [5] is CtermHisTag-mEGFR Wild type (Homo sapiens, UniProt P00533). The assay is described as follows: TR-FRET probe displacement assay, EGFR wild type. It counts as binding. Particulars: EGFR wild type 1.25 nM, probe 100 nM, 30 mins room temperature. A digest of the protocol:
as §1

Results on 19 compounds are retold here after patent publication US20260176265A1 (Cancer Research Technology Limited, priority 2022, published 2026).

SMILES strings stand for the structures.

Chain of CtermHisTag-mEGFR Wild type (P00533 25-1210): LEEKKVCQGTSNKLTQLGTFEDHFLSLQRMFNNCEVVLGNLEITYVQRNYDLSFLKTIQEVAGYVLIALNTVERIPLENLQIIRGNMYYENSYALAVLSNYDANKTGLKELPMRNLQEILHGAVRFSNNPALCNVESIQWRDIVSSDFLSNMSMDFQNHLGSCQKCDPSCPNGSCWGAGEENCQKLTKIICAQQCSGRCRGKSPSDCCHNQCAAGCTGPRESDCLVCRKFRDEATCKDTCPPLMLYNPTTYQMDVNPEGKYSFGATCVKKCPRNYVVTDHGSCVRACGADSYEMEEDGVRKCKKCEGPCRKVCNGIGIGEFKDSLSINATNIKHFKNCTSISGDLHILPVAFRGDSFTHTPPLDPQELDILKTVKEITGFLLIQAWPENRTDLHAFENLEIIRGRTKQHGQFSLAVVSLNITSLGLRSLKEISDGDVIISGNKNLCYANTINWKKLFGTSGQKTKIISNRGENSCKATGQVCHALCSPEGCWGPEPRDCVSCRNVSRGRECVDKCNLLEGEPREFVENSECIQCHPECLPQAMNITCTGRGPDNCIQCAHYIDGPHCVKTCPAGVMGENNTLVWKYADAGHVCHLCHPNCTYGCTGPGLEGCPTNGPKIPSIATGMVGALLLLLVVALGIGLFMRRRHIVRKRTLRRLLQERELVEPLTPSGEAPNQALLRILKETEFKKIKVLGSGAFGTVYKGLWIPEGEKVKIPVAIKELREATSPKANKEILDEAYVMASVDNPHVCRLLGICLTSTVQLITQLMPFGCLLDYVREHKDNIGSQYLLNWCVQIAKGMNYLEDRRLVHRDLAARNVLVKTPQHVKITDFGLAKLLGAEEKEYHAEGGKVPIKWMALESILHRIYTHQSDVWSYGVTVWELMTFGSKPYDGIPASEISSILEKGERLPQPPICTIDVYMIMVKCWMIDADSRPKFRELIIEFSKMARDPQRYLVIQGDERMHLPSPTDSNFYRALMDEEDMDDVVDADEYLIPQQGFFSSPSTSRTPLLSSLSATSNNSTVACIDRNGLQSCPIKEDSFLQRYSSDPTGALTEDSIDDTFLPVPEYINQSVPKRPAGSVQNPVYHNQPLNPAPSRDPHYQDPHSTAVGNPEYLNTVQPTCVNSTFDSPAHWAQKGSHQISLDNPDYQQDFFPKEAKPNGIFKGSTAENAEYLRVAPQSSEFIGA
T2 sequence (P00533 25-1210): as above
T1 sequence (P00533 25-1210 T790M/C797S/L858R): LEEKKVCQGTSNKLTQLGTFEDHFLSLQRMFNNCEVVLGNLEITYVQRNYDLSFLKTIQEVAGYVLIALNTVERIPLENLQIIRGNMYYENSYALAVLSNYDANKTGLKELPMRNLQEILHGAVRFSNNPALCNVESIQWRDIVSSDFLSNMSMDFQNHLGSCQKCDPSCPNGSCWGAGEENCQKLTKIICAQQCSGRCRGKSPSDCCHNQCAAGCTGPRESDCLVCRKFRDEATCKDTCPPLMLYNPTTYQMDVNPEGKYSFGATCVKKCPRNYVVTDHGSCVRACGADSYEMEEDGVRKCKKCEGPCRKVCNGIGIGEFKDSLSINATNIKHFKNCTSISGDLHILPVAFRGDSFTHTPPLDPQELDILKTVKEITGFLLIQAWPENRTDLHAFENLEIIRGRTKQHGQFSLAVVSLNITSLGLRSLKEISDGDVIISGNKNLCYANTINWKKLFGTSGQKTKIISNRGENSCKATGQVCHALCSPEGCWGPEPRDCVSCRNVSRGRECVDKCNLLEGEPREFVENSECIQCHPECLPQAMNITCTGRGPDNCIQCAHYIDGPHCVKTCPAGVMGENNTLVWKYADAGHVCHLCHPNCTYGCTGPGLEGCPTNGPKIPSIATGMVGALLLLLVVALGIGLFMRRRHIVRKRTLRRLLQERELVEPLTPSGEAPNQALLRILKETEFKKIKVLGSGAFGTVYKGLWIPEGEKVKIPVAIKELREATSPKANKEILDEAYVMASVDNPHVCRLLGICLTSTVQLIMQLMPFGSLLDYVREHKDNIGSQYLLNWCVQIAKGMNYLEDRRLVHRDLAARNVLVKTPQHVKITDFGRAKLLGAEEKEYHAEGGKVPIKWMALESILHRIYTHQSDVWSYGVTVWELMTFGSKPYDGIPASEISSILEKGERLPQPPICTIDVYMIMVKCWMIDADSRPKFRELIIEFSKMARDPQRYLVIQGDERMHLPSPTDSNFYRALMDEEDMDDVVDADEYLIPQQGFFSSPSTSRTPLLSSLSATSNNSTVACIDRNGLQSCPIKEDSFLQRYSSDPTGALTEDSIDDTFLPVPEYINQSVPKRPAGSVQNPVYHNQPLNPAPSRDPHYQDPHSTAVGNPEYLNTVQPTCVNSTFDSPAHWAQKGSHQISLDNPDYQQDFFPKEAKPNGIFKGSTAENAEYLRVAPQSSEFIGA

For `C#Cc1cc(NC(=O)NCc2cncn2C)nc2nc(Nc3ccc(N4CCN(C)CC4)cc3)ncc12` [Example 46, 1-(5-ethynyl-2-{[4-(4-methylpiperazin-1-yl)phenyl]amino}pyrido[2,3-d]pyrimidin-7-yl)-3-[(3-methylmidazol-4-yl)methyl]urea], the IC50 was above 3000 nM in assay [1]; below 20 nM in assay [2]; above 3000 nM in assay [3]; above 3000 nM in assay [4]; below 1000 nM in assay [5].
For `C#Cc1cc(NC(=O)NCc2ccno2)nc2nc(Nc3ccc(N4CCN(C)CC4)cc3)ncc12` [Example 47, 1-(5-ethynyl-2-{[4-(4-methylpiperazin-1-yl)phenyl]amino}pyrido[2,3-d]pyrimidin-7-yl)-3-(1,2-oxazol-5-ylmethyl)urea], the IC50 is 1000 to 3000 nM in assay [1]; 20 to 100 nM in assay [2]; above 3000 nM in assay [3]; 500 to 1000 nM in assay [4]; below 1000 nM in assay [5].
In the same order, the values of `C#Cc1cc(NC(=O)NCc2ccnn2C)nc2nc(Nc3ccc(N4CCN(C)CC4)cc3)ncc12` [Example 48, 1-(5-ethynyl-2-{[4-(4-methylpiperazin-1-yl)phenyl]amino}pyrido[2,3-d]pyrimidin-7-yl)-3-[(2-methylpyrazol-3-yl)methyl]urea] are below 500 nM, below 20 nM, above 3000 nM, below 500 nM and below 1000 nM.
On the same counts, the results for `C#Cc1cc(NC(=O)NCc2ccccn2)nc2nc(Nc3ccc(N4CCN(C)CC4)cc3)ncc12` [Example 49, 3-(5-ethynyl-2-{[4-(4-methylpiperazin-1-yl)phenyl]amino}pyrido[2,3-d]pyrimidin-7-yl)-1-(pyridin-2-ylmethyl)urea] are 1000 to 3000 nM, 20 to 100 nM, above 3000 nM, 500 to 1000 nM and below 1000 nM.
In the same order, the values of `C#Cc1cc(NC(=O)NCC2CCCO2)nc2nc(Nc3ccc(N4CCN(C)CC4)cc3)ncc12` (centres unmarked) [Example 50, 1-(5-ethynyl-2-{[4-(4-methylpiperazin-1-yl)phenyl]amino}pyrido[2,3-d]pyrimidin-7-yl)-3-(oxolan-2-ylmethyl)urea] are 500 to 1000 nM, 20 to 100 nM, above 3000 nM, below 500 nM and below 1000 nM.
On to `C#Cc1cc(NC(=O)NCC2CCOC2)nc2nc(Nc3ccc(N4CCN(C)CC4)cc3)ncc12` (centres unmarked) [Example 51, 1-(5-ethynyl-2-{[4-(4-methylpiperazin-1-yl)phenyl]amino}pyrido[2,3-d]pyrimidin-7-yl)-3-(oxolan-3-ylmethyl)urea], for which the IC50 in assay [1] was below 500 nM; in assay [2], below 20 nM; in assay [3] it was above 3000 nM; in assay [4], below 500 nM; in assay [5], below 1000 nM.
Take `C#Cc1cc(NC(=O)N[C@@H]2CCN(C(C)=O)C2)nc2nc(Nc3ccc(N4CCN(C)CC4)cc3)ncc12` [Example 52]: the IC50 in assay [1] was above 3000 nM; in assay [2] it was 20 to 100 nM; in assay [3], above 3000 nM; in assay [4], above 3000 nM; in assay [5], 1000 to 10000 nM.
As to `C#Cc1cc(NC(=O)N[C@H]2CCN(C(C)=O)C2)nc2nc(Nc3ccc(N4CCN(C)CC4)cc3)ncc12` [Example 53, 3-[(3S)-1-acetylpyrrolidin-3-yl]-1-(5-ethynyl-2-{[4-(4-methylpiperazin-1-yl)phenyl]amino}pyrido[2,3-d]pyrimidin-7-yl)urea], the IC50 was above 3000 nM in assay [1]; below 20 nM in assay [2]; above 3000 nM in assay [3]; 1000 to 3000 nM in assay [4]; below 1000 nM in assay [5].
Regarding `C#Cc1cc(NC(=O)NC2CN(C(C)=O)C2)nc2nc(Nc3ccc(N4CCN(C)CC4)cc3)ncc12` [Example 54], the IC50 in assay [1] is above 3000 nM; in assay [2] it was below 20 nM; in assay [3], above 3000 nM; in assay [4] it was above 3000 nM; in assay [5], 1000 to 10000 nM.
Consider `C#Cc1cc(NC(=O)NCC2COC2)nc2nc(Nc3ccc(N4CCN(C)CC4)cc3)ncc12` [Example 55, 1-(5-ethynyl-2-{[4-(4-methylpiperazin-1-yl)phenyl]amino}pyrido[2,3-d]pyrimidin-7-yl)-3-(oxetan-3-ylmethyl)urea], for which the IC50 was below 500 nM in assay [1]; below 20 nM in assay [2]; above 3000 nM in assay [3]; below 500 nM in assay [4]; below 1000 nM in assay [5].
As to `C#Cc1cc(NC(=O)N2CCCC2)nc2nc(Nc3ccc(N4CCN(C)CC4)cc3)ncc12` [Example 56, N-(5-ethynyl-2-{[4-(4-methylpiperazin-1-yl)phenyl]amino}pyrido[2,3-d]pyrimidin-7-yl)pyrrolidine-1-carboxamide], the IC50 is above 3000 nM in assay [1]; 100 to 1000 nM in assay [2]; above 3000 nM in assay [3]; 1000 to 3000 nM in assay [4]; above 10000 nM in assay [5].
Turning to `C#Cc1cc(NC(=O)NC2CN(S(C)(=O)=O)C2)nc2nc(Nc3ccc(N4CCN(C)CC4)cc3)ncc12` [Example 57, 1-(5-ethynyl-2-{[4-(4-methylpiperazin-1-yl)phenyl]amino}pyrido[2,3-d]pyrimidin-7-yl)-3-(1-methanesulfonylazetidin-3-yl)urea], the IC50 in assay [1] is above 3000 nM; in assay [2], below 20 nM; in assay [3], above 3000 nM; in assay [4], above 3000 nM; in assay [5], below 1000 nM.
Turning to `C#Cc1cc(NC(=O)N2Cc3ccccc3C2)nc2nc(Nc3ccc(N4CCN(C)CC4)cc3)ncc12` [Example 58, N-(5-ethynyl-2-{[4-(4-methylpiperazin-1-yl)phenyl]amino}pyrido[2,3-d]pyrimidin-7-yl)-1,3-dihydroisoindole-2-carboxamide], the IC50 in assay [1] was above 3000 nM; in assay [2] it was 100 to 1000 nM; in assay [3], above 3000 nM; in assay [4], above 3000 nM; in assay [5], above 10000 nM.
Consider `C#Cc1cc(NC(=O)Nc2ncc[nH]2)nc2nc(Nc3ccc(N4CCN(C)CC4)cc3)ncc12` [Example 59, 1-(5-ethynyl-2-{[4-(4-methylpiperazin-1-yl)phenyl]amino}pyrido[2,3-d]pyrimidin-7-yl)-3-(1H-imidazol-2-yl)urea], for which the IC50 is 1000 to 3000 nM in assay [1]; below 20 nM in assay [2]; above 3000 nM in assay [3]; 1000 to 3000 nM in assay [4]; below 1000 nM in assay [5].
Turning to `C#Cc1cc(NC(=O)NC2(C(F)(F)F)CCCC2)nc2nc(Nc3ccc(N4CCN(C)CC4)cc3)ncc12` [Example 60, 1-(5-ethynyl-2-((4-(4-methylpiperazin-1-yl)phenyl)amino)pyrido[2,3-d]pyrimidin-7-yl)-3-(1-(trifluoromethyl)cyclopentyl)urea], the IC50 is below 500 nM in assay [1]; below 20 nM in assay [2]; below 500 nM in assay [3]; below 500 nM in assay [4]; below 1000 nM in assay [5].
For `C#Cc1cc(NC(=O)NC2(C)COC2)nc2nc(Nc3ccc(N4CCN(C)CC4)cc3)ncc12` [Example 61, 1-(5-ethynyl-2-((4-(4-methylpiperazin-1-yl)phenyl)amino)pyrido[2,3-d]pyrimidin-7-yl)-3-(3-methyloxetan-3-yl)urea], the IC50 in assay [1] is below 500 nM; in assay [2], below 20 nM; in assay [3] it was above 3000 nM; in assay [4], below 500 nM; in assay [5] it was below 1000 nM.
On to `C#Cc1cc(NC(=O)NC2(C)CCOC2)nc2nc(Nc3ccc(N4CCN(C)CC4)cc3)ncc12` (centres unmarked) [Example 62], for which the IC50 in assay [1] is below 500 nM; in assay [2], below 20 nM; in assay [3] it was 500 to 1000 nM; in assay [4], below 500 nM; in assay [5], below 1000 nM.
Regarding `C#Cc1cc(NC(=O)NC2CCCC2)nc2nc(Nc3ccc(N4CCN(C)CC4)c(NCC4CCC4)c3)ncc12` [Example 63], the IC50 in assay [1] is 1000 to 3000 nM; in assay [2], 20 to 100 nM; in assay [3], below 500 nM; in assay [4] it was below 500 nM; in assay [5], below 1000 nM.
Consider `C#Cc1cc(N2C(=O)NCC2C(C)C)nc2nc(Nc3ccc(N4CCN(C)CC4)cc3)ncc12` (centres unmarked) [Example 64, 1-(5-ethynyl-2-{[4-(4-methylpiperazin-1-yl)phenyl]amino}pyrido[2,3-d]pyrimidin-7-yl)-5-isopropylmidazolidin-2-one], for which the half-maximal inhibitory concentration (IC50) in assay [1] was 1000 to 3000 nM; in assay [2], below 20 nM; in assay [3], below 500 nM; in assay [4] it was below 500 nM; in assay [5] it was 1000 to 10000 nM.

Broadly, the IC50 is the point on the concentration scale where inhibition reaches its midpoint.
